Experimental data from patent publication US20180127748A1, “METHODS RELATING TO THE PREVENTION AND TREATMENT OF DRUG RESISTANCE” (THE GENERAL HOSPITAL CORPORATION, priority 2015, published 2018).
“Also recorded” adds a separate entry of the source.

Assays:
[1] = test system: RPE cells; assay: Screen of chemical and metabolic stresses for site-specific copy gain (FISH); assay type: cell-based, human; settings: 24 h treatment: 60 μM H2O2, 2 μg/ml Tunicamycin, 2 mM DTT, 5 mM NAC, 1 μM DMNQ
Protocol: Cells were treated with the following chemical and metabolic stresses for 24 hours at doses used in the literature: 2 μg/ml Tunicamycin (TU, Abcam), 60 μM H2O2(Thermo Fisher Scientific), reduced-serum DMEM (0.1% FBS), Glucose-free DMEM (No Gluc, GIBCO), 2 mM DTT (Sigma), 5 mM N-acetyl Cysteine (NAC, Sigma), and 1 μM 2,3-Dimethoxy-1,4-naphthoquinone (DMNQ, Sigma). For heat shock (HS) treatment, cells were incubated at 43° C. for 30 minutes and returned to 37° C. for 24 hours prior to collection.
FISH was performed as described in (Manning et al. 2010; Black et al. 2013). For RPE cells, copy gain was scored as any cell with 3 or more distinct foci. Approximately 100 cells for each replicate were scored for all experiments. All FISH experiments include at least 2 biological replicates. For each experiment at least one replicate includes FACS and western blot from the same cells used for FISH. For knockdown experiments, at least two different siRNA were used for each target. Results are presented as the average from both of the independent siRNAs.
FISH was performed as described in (Manning et al. 2010; Black et al. 2013). Probes for 1q12h, 1q telomere, chromosome 8 centromere (alpha satellite), and X centromere (alpha satellite) were purchased from Rainbow Scientific. Probes for Zebrafish BCL9 (CH73-15J19) and Zebrafish IGBP1 (CH73-223D24) were purchased as BAC clones from Children's Hospital Oakland Research Institute (CHORI BacPac) clone repository. Probes for 1q21.2 (BCL9) and 1q23.3 were purchased from Agilent (SureFISH). BACS were prepared utilizing PureLink HiPure™ Plasmid Filter Maxiprep kit (Life Technologies) using the recommended modified wash buffer. Probes were nick translated (Abbot Molecular Kit) in the presence of fluorescently labeled dTTP (Enzo Life Science). Images of multiple planes of fields of nuclei were acquired on an Olympus IX81™ Spinning Disk Microscope and analyzed using Slidebook 5.0™ software. We used a conservative scoring metric for copy gain. Any foci that were touching were scored as a single copy to prevent increased numbers due to normally replicated foci. For RPE cells, copy gain was scored as any cell with 3 or more distinct foci. For 293T cells, copy gain was scored for any cell with 5 or more distinct foci. For UMRC2 cells, copy gain was scored for any cell with 6 or more foci. For SK-N-AS cells, copy gain was scored for any cell with 5 or more foci. For MDA-MB-468 cells, copy gain was scored for any cell with 5 or more foci. For MDA-MB-231 cells, copy gain was scored for any cell with 7 or more foci. Approximately 100 cells for each replicate were scored for all experiments. All FISH experiments include at least 2 biological replicates. For each experiment, at least one replicate includes FACS and western blot from the same cells used for FISH. For knockdown experiments, at least two different siRNA were used for each target. Results are presented as the average from both of the independent siRNAs.

[2] = biological target: KDM6B (Homo sapiens, UniProt O15054); settings: Wang et al. 2013; cited from earlier work
[3] = test system: RPE cells; assay: Cell cycle analysis by flow cytometry; assay type: cell-based, human; settings: for cell cycle progression in hypoxia: 2 mM succinate
Protocol: Asynchronously growing, or G1/S arrested cells were prepared and fixed as in (Black et al. 2010). Cells were stained with 10 μM EdU for 1 hour prior to collection. Cell cycle was analyzed by PI staining or EdU incorporation using Click-IT EdU™ Flow Cytometry Assay Kit (Life Technologies). Flow cytometry of CD4+ T cells and cell cycle distribution were analyzed using a BD FACS ARIA II™.

[4] = test system: KDM4A; assay: Western blot of KDM4A protein levels in hypoxia; assay type: cell-based, human; settings: RPE cells, 1% O2; for KDM4A stabilization / protein levels in hypoxia: 2 mM succinate
Protocol: Western blots were performed as in (Black et al. 2010).
Western Blots. Western blots were performed as in (Black et al. 2010). Briefly, adherent cells were either scraped directly into PBS, or washed with PBS, trypsinized and collected by centrifuging at 2,000 RPM for 5 minutes. For preparation of whole-cell lysates, cell pellets were washed once in ice-cold PBS and resuspended in RIPA lysis buffer [50 mM Tris pH 7.4, 150 mM NaCl, 0.25% Sodium Deoxycholate, 1% NP40, 1 mM EDTA, 10% Glycerol] supplemented with cOmplete protease inhibitor and PhosSTOP phosphatase inhibitor cocktails (Roche). Cells were lysed on ice for 15 minutes and immediately frozen at −80° C. for 10 minutes. Lysates were subsequently sonicated at 70% amplitude for 15 minutes in a QSonica Q700 sonicator and cleared of cell debris by centrifuging at 12,000 RPM for 15 minutes, before being analyzed by western blotting. For HIF1α and HIF2a expression, adherent cells were washed twice with ice-cold PBS and scraped directly in warmed 1× Laemmli buffer. Samples were sonicated at 70% amplitude for 15 minutes in a QSonica Q700™ and boiled at 95° C. for 10 minutes immediately prior to western blotting.

[5] = test system: KDM4 family; settings: Wang et al. 2013; cited from earlier work
[6] = test system: RPE cells; assay: FISH for hypoxia-dependent site-specific copy gain; assay type: cell-based, human
Protocol: Cells were plated onto culture dishes and allowed to adhere for 20-24 hours in normoxia (5% CO2, 21% O2, and 74% N2). For hypoxic treatment, cells were maintained in a HERA™ Cell 150 incubator (Thermo Scientific) flushed with 5% CO2, 1% O2, and balanced with N2 for the duration of the experiment. Incubator calibrations and verifications were carried out by Bianchi Associates Calibrations/Verifications.
For G1/S synchronization, cells were treated with 2 mM hydroxyurea (HU, Sigma) for 20 hours. To release, cells were washed twice with culture medium pre-conditioned in normoxia or hypoxia, and supplied with fresh pre-conditioned media. For JIB-04 treatment, normoxic cells were pre-treated with 62.5 nM JIB-04 (Xcessbio) for 24 hours, and then treated again with JIB-04 and either transferred to 1% O2 or maintained in normoxia for an additional 24 hours. […]
FISH was performed as described in (Manning et al. 2010; Black et al. 2013). For RPE cells, copy gain was scored as any cell with 3 or more distinct foci. Approximately 100 cells for each replicate were scored for all experiments. […]
FISH was performed as described in (Manning et al. 2010; Black et al. 2013). […] Images of multiple planes of fields of nuclei were acquired on an Olympus IX81™ Spinning Disk Microscope and analyzed using Slidebook 5.0™ software. […] Any foci that were touching were scored as a single copy to prevent increased numbers due to normally replicated foci. For RPE cells, copy gain was scored as any cell with 3 or more distinct foci. For 293T cells, copy gain was scored for any cell with 5 or more distinct foci. For UMRC2 cells, copy gain was scored for any cell with 6 or more foci. For SK-N-AS cells, copy gain was scored for any cell with 5 or more foci. For MDA-MB-468 cells, copy gain was scored for any cell with 5 or more foci. For MDA-MB-231 cells, copy gain was scored for any cell with 7 or more foci. Approximately 100 cells for each replicate were scored for all experiments. […]

[7] = biological target: KDM5A (Homo sapiens, UniProt P29375); settings: Wang et al. 2013; cited from earlier work
[8] = test system: JmjC-containing proteins; settings: Smith et al. 2007; Black et al. 2012; cited from earlier work

KDM5A, sequence (P29375 whole entry, species assumed): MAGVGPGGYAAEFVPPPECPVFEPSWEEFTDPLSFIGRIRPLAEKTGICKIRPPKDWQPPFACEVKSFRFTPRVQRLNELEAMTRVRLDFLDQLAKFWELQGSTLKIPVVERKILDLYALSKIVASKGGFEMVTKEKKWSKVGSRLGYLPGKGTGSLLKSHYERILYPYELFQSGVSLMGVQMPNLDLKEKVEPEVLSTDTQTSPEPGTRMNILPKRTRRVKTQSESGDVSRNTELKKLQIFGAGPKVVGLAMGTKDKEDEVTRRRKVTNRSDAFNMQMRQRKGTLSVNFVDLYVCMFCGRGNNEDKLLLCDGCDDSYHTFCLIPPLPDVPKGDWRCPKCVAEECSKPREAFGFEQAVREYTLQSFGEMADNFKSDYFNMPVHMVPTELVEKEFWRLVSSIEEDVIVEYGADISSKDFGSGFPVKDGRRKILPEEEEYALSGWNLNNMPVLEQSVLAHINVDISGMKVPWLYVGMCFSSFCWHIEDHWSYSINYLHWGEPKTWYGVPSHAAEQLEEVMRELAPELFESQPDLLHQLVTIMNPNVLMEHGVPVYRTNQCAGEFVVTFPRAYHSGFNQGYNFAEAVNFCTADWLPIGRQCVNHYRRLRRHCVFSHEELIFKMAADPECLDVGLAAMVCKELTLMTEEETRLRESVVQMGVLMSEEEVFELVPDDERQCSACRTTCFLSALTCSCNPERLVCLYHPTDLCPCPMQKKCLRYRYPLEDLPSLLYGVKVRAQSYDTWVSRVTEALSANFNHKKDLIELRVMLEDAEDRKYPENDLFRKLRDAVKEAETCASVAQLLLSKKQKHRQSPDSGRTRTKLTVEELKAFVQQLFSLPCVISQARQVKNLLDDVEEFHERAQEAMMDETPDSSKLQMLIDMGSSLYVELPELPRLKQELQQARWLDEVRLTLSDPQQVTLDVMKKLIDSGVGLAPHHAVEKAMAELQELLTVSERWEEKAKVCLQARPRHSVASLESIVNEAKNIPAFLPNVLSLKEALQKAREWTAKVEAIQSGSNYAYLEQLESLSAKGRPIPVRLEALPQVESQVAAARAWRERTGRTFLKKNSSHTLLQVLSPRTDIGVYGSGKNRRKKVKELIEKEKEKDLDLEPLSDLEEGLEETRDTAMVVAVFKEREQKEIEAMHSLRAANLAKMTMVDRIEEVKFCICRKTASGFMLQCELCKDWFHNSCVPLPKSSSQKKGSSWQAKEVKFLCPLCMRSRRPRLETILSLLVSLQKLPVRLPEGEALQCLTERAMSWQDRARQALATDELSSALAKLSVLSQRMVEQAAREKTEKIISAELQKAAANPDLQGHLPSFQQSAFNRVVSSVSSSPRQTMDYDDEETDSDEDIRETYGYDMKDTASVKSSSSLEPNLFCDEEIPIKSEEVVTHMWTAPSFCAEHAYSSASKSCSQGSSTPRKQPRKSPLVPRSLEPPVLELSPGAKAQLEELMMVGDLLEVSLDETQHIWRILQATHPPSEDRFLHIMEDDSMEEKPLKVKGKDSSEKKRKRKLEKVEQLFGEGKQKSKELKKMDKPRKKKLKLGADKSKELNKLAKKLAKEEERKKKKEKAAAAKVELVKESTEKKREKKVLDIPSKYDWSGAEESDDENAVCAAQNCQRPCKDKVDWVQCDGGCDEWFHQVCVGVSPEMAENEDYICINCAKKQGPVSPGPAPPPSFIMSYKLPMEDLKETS
KDM6B, sequence (O15054 whole entry, species assumed): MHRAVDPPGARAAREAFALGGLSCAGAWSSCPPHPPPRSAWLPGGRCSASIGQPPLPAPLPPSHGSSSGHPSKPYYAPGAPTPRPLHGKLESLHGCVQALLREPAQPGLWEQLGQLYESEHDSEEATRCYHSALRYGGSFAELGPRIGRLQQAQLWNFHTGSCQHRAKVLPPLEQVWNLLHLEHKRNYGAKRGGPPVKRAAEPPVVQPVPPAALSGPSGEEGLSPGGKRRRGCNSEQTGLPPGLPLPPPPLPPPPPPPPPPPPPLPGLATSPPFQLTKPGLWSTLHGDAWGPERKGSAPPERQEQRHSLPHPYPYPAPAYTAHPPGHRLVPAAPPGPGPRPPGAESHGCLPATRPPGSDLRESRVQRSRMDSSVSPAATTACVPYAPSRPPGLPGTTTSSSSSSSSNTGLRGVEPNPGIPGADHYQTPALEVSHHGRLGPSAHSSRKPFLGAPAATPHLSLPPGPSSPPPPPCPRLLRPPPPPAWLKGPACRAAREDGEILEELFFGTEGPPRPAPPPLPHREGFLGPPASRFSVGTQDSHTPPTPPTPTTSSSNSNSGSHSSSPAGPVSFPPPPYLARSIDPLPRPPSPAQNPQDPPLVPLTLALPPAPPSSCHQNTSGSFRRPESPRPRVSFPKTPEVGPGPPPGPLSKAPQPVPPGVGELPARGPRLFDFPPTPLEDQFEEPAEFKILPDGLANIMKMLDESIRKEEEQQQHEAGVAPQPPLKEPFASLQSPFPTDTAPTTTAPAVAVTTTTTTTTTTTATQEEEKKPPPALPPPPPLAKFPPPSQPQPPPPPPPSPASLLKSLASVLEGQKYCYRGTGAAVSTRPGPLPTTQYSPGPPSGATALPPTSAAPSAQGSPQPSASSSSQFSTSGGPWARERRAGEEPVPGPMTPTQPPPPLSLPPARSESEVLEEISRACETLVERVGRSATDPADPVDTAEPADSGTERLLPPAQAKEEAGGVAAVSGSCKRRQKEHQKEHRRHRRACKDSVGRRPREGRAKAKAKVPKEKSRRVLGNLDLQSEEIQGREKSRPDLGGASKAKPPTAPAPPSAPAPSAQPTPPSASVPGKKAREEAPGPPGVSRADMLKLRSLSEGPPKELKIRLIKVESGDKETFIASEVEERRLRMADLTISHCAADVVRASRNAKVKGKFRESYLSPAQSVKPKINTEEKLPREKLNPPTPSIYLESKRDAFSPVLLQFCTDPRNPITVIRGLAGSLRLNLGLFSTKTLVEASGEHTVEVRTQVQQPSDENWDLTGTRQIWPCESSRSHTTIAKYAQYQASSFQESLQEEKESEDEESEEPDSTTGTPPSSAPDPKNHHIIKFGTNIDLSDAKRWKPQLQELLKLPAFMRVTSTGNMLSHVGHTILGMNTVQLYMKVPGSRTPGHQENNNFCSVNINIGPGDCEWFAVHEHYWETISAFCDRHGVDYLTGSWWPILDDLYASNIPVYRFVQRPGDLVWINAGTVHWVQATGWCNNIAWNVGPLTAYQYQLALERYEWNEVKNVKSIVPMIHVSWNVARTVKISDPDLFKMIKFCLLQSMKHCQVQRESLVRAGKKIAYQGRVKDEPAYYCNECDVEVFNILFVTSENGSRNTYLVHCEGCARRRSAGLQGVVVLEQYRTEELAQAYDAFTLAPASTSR

COC1=C(OC)C(=O)c2ccccc2C1=O [DMNQ, 2,3-Dimethoxy-1,4-naphthoquinone]
site-specific copy gain (FISH for 1q12h, Chr 8, 1q23.3, 1q21.2) [1]: did not induce site-specific copy gain; also recorded: do not induce site-specific copy gains

O[C@@H](CS)[C@@H](O)CS [DTT]
site-specific copy gain (FISH for 1q12h, Chr 8, 1q23.3, 1q21.2) [1]: did not induce site-specific copy gain; also recorded: do not induce site-specific copy gains

OO [H2O2]
site-specific copy gain (FISH for 1q12h, Chr 8, 1q23.3, 1q21.2) [1]: does not promote copy gain

Clc1ccc(N/N=C(\c2ccccc2)c2ccccn2)nc1 [JIB-04]
inhibition of KDM6B [2]: inhibits
cell cycle profiles in hypoxia ([3]; JIB-04 62.5 nM, 1% O2): did not substantially alter; also recorded: no difference in cell cycle phases
KDM4A protein levels in hypoxia ([4]; JIB-04 62.5 nM): did not substantially alter; also recorded: does not alter KDM4A protein levels
inhibition of the KDM4 family [5]: inhibits
hypoxia-dependent copy gain of 1q12h (FISH) ([6]; 62.5 nM JIB-04 pre-treated 24 h, treated again, 1% O2 24 h): significantly reduced; also recorded: blocks hypoxia-dependent copy gain
inhibition of KDM5A [7]: inhibits

CC(=O)N[C@@H](CS)C(=O)O [N-Acetyl Cysteine, N-acetyl Cysteine]
site-specific copy gain (FISH for 1q12h, Chr 8, 1q23.3, 1q21.2) [1]: did not induce site-specific copy gain
site-specific copy gain (FISH for 1q12h, Chr 8, 1q23.3, 1q21.2) ([1]; listed as N-acetyl Cysteine): do not induce site-specific copy gains

O=C(O)CCC(=O)O [succinate]
inhibition of JmjC-containing proteins [8]: can be inhibited
cell cycle progression in hypoxia ([3]; 1% O2): no difference in cell cycle phases
cell cycle progression in hypoxia ([3]; 1% O2, listed as Succinate): did not alter
KDM4A stabilization / protein levels in hypoxia [4]: does not alter KDM4A protein levels
KDM4A stabilization / protein levels in hypoxia ([4]; listed as Succinate): did not alter
hypoxia-dependent copy gain of 1q12h (FISH) ([6]; 2 mM succinate, 48 h normoxia then 1% O2 24 h): can be suppressed
hypoxia-dependent copy gain of 1q12h (FISH) ([6]; 2 mM succinate, 48 h normoxia then 1% O2 24 h, listed as Succinate): sufficient to abrogate

Tunicamycin
site-specific copy gain (FISH for 1q12h, Chr 8, 1q23.3, 1q21.2) [1]: does not promote copy gain
